In BindingDB's records for doi:10.7270/Q2MK6B9H (Nmmlsc, 2009):

biological target: Ras-related protein Rab-7a (Canis lupus familiaris, UniProt P18067); assay: Rab7 wildtype GTP binding inhibitors, SAR follow-up, biochemical, dog Rab7, bead multiplex flow cytometry, Bodipy-FL-GTP, pyrazoline series (AID 2041); conditions: not given
Sequence (P18067 whole entry): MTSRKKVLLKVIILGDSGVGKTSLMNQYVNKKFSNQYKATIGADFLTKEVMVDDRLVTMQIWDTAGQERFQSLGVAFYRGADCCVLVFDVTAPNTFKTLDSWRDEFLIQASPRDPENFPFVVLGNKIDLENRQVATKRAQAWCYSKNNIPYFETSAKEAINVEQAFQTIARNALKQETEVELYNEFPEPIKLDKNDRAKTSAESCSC

Row | SMILES | EC50 [µM]
1 | COc1ccc(C2CC(c3cccc(N(C)C)c3)=NN2c2ccc(S(N)(=O)=O)cc2)cc1 (stereo not given) | > 30
2 | CN(C)c1ccc(C2CC(c3ccc(F)cc3)=NN2c2ccccc2)cc1 (stereo not given) [UNM-0000305866] | > 30
3 | FC(F)(F)c1cccc(N2N=C(c3ccc(Cl)cc3)CC2c2ccccc2Cl)c1 (stereo not given) [UNM-0000305859] | > 30
4 | COc1ccc(C2CC(c3ccc(N(C)C)cc3)=NN2c2ccc(S(N)(=O)=O)cc2)cc1 (stereo not given) [KUC103422N] | > 30
5 | O=C(O)c1ccc(N2N=C(c3ccccc3)CC2c2ccccc2)cc1 (stereo not given) | > 30
6 | COc1ccccc1C1CC(c2ccccc2)=NN1c1ccc(S(N)(=O)=O)cc1 (stereo not given) [4-[3-(2-methoxyphenyl)-5-phenyl-3,4-dihydropyrazol-2-yl]benzenesulfonamide] | > 30
7 | COc1ccc(C2CC(c3ccccc3Cl)=NN2c2ccc(S(N)(=O)=O)cc2)cc1 (stereo not given) [4-[5-(2-chlorophenyl)-3-(4-methoxyphenyl)-3,4-dihydropyrazol-2-yl]benzenesulfonamide] | > 30
8 | CN(C)c1ccc(C2CC(c3ccc(Cl)cc3)=NN2c2ccccc2)cc1 (stereo not given) [UNM-0000305847] | > 30
9 | NS(=O)(=O)c1ccc(N2N=C(c3ccc(Cl)cc3)CC2c2ccccc2)cc1 (stereo not given) | > 30
10 | COc1ccccc1N1N=C(c2ccccc2)CC1c1ccccc1 (stereo not given) [UNM-0000305855] | 10.2
11 | COc1ccc(C2CC(c3ccc(F)cc3)=NN2c2cccc(F)c2)cc1OC (stereo not given) | 22.5
12 | Cc1ccccc1C1CC(c2ccccc2)=NN1c1ccc(S(N)(=O)=O)cc1 (stereo not given) [UNM-0000306148] | > 30
13 | COc1ccc(C2CC(c3ccccc3Br)=NN2c2ccc(S(N)(=O)=O)cc2)cc1 (stereo not given) [UNM-0000306112] | > 30
14 | COc1cccc(C2CC(c3ccccc3)=NN2c2ccc(S(N)(=O)=O)cc2)c1 (stereo not given) [4-[3-(3-methoxyphenyl)-5-phenyl-3,4-dihydropyrazol-2-yl]benzenesulfonamide] | > 30
15 | Clc1cccc(N2N=C(c3ccccc3)CC2c2ccccc2)c1 (stereo not given) | > 30
16 | O=S(=O)(O)c1ccc(N2N=C(c3ccccc3)CC2c2ccccc2)cc1 (stereo not given) [UNM-0000305834] | > 30
17 | Cc1ccc(-c2cc(C(F)(F)F)nn2-c2ccc(S(N)(=O)=O)cc2)cc1 [Celecoxib] | > 30
18 | COc1ccc(-c2cc(-c3ccccc3)nn2-c2ccc(S(N)(=O)=O)cc2)cc1 [4-[5-(4-methoxyphenyl)-3-phenylpyrazol-1-yl]benzenesulfonamide] | > 30
19 | COc1ccc(C2CC(c3ccc(Br)cc3)=NN2c2ccc(S(N)(=O)=O)cc2)cc1 (stereo not given) [UNM-0000306138] | > 30
20 | CC(=O)Oc1ccc(C2=NN(c3ccccc3)C(c3ccccc3)C2)cc1 (stereo not given) | > 30
21 | COc1ccc(C2CC(c3ccc(Cl)cc3)=NN2c2ccc(S(N)(=O)=O)cc2)cc1 (stereo not given) | > 30
22 | COc1ccc(C2CC(c3ccccc3)=NN2c2ccc(Cl)c(C(=O)O)c2)cc1 (stereo not given) | > 30
23 | Brc1ccc(N2N=C(c3ccccc3)CC2c2ccccc2)cc1 (stereo not given) | > 30
24 | COc1ccc(C2CC(c3cccc(OC)c3)=NN2c2ccc(S(N)(=O)=O)cc2)cc1 (stereo not given) [4-[5-(3-methoxyphenyl)-3-(4-methoxyphenyl)-3,4-dihydropyrazol-2-yl]benzenesulfonamide] | > 30

Row | SMILES | EC50 [µM]
25 | Fc1ccccc1C1CC(c2ccc(Br)cc2)=NN1c1ccc(Br)cc1 (stereo not given) [2,5-bis(4-bromophenyl)-3-(2-fluorophenyl)-3,4-dihydropyrazole] | > 30
26 | COc1ccc(C2=NN(c3ccccc3F)C(c3ccc(F)cc3)C2)cc1 (stereo not given) [UNM-0000305860] | > 30
27 | COc1ccc(C2CC(c3ccccc3C(F)(F)F)=NN2c2ccc(S(N)(=O)=O)cc2)cc1 (stereo not given) [KUC103474N] | > 30
28 | COc1ccc(C2=NN(c3ccccc3)C(c3ccc(OC)c(OC)c3C(=O)O)C2)cc1 (stereo not given) [UNM-0000305848] | > 30
29 | COc1ccc(C2=NN(c3cccc(F)c3)C(c3ccc(Cl)cc3)C2)cc1 (stereo not given) [3-(4-chlorophenyl)-2-(3-fluorophenyl)-5-(4-methoxyphenyl)-3,4-dihydropyrazole] | > 30
30 | Cc1onc(-c2ccccc2)c1-c1ccc(S(N)(=O)=O)cc1 | > 30
31 | Fc1ccc(C2=NN(c3cccc(Br)c3)C(c3ccccc3)C2)cc1 (stereo not given) [2-(3-bromophenyl)-5-(4-fluorophenyl)-3-phenyl-3,4-dihydropyrazole] | > 30
32 | COc1ccc(C2=NN(c3ccc(S(N)(=O)=O)cc3)C(c3ccc(OC)cc3)C2)cc1 (stereo not given) [4-[3,5-bis(4-methoxyphenyl)-3,4-dihydropyrazol-2-yl]benzenesulfonamide] | > 30
33 | NS(=O)(=O)c1ccc(N2N=C(c3ccccc3)CC2c2ccc(Cl)cc2)cc1 (stereo not given) [4-[3-(4-chlorophenyl)-5-phenyl-3,4-dihydropyrazol-2-yl]benzenesulfonamide] | > 30
34 | NS(=O)(=O)c1ccc(N2N=C(c3ccc(Br)cc3)CC2c2ccc(F)cc2)cc1 (stereo not given) [4-[5-(4-bromophenyl)-3-(4-fluorophenyl)-3,4-dihydropyrazol-2-yl]benzenesulfonamide] | > 30
35 | COc1ccc(C2CC(c3ccc(Cl)cc3)=NN2c2ccccc2)cc1OC (stereo not given) [UNM-0000305858] | > 30
36 | COc1ccc(C2=NN(c3ccc(Cl)c(Cl)c3)C(c3ccc(OC)cc3)C2)cc1 (stereo not given) [2-(3,4-dichlorophenyl)-3,5-bis(4-methoxyphenyl)-3,4-dihydropyrazole] | > 30
37 | COc1ccc(C2CC(c3ccc(F)cc3)=NN2c2cc(Cl)ccc2Cl)cc1 (stereo not given) [2-(2,5-dichlorophenyl)-5-(4-fluorophenyl)-3-(4-methoxyphenyl)-3,4-dihydropyrazole] | 11.1
38 | NS(=O)(=O)c1ccc(N2N=C(c3ccccc3)CC2c2cccc(Cl)c2)cc1 (stereo not given) [UNM-0000306161] | > 30
39 | NS(=O)(=O)c1ccc(N2N=C(c3ccccc3)CC2c2ccccc2Br)cc1 (stereo not given) [4-[3-(2-bromophenyl)-5-phenyl-3,4-dihydropyrazol-2-yl]benzenesulfonamide] | > 30
40 | COc1ccc(C2CC(c3ccccc3)=NN2c2cccc(S(N)(=O)=O)c2)cc1 (stereo not given) [3-[3-(4-methoxyphenyl)-5-phenyl-3,4-dihydropyrazol-2-yl]benzenesulfonamide] | > 30
41 | COc1ccc(C2CC(c3ccc(Br)cc3)=NN2c2ccccc2Cl)cc1 (stereo not given) [UNM-0000305832] | > 30
42 | COc1ccc(C2CC(C)=NN2c2ccc(S(N)(=O)=O)cc2)cc1 (stereo not given) [4-[3-(4-methoxyphenyl)-5-methyl-3,4-dihydropyrazol-2-yl]benzenesulfonamide] | > 30
43 | COc1ccc(C2CC(c3ccsc3)=NN2c2ccc(S(N)(=O)=O)cc2)cc1 (stereo not given) [4-[3-(4-methoxyphenyl)-5-thiophen-3-yl-3,4-dihydropyrazol-2-yl]benzenesulfonamide] | > 30
44 | NS(=O)(=O)c1ccc(N2N=C(c3ccccc3)CC2c2cccc(Br)c2)cc1 (stereo not given) [UNM-0000306147] | > 30
45 | COc1ccc(C2CC(c3ccccc3C)=NN2c2ccc(S(N)(=O)=O)cc2)cc1 (stereo not given) [UNM-0000306152] | > 30
46 | COc1ccc(C2CC(c3ccc(C)cc3)=NN2c2ccc(S(N)(=O)=O)cc2)cc1 (stereo not given) | > 30
47 | COc1ccc(C2=NN(c3ccc(Cl)cc3)C(c3ccccc3F)C2)cc1 (stereo not given) [UNM-0000305863] | > 30

same assay, conditions: inactive by the depositor's call

Row | SMILES | EC50 [µM]
48 | COc1ccc(C2=NN(c3ccccc3)C(c3ccc(Cl)cc3)C2)cc1 (stereo not given) [UNM-0000305833] | 0.679
49 | Clc1ccc(N2N=C(c3ccccc3)CC2c2ccccc2)cc1 (stereo not given) | 6.64
50 | COc1ccc(C2=NN(c3cccc(F)c3)C(c3ccc(OC)cc3)C2)cc1 (stereo not given) [2-(3-fluorophenyl)-3,5-bis(4-methoxyphenyl)-3,4-dihydropyrazole] | 0.104
